target: T1, human mPGES-1 (Homo sapiens, UniProt O14684); experiment: Test for mPGES-1 inhibitory activity (microsomal enzyme, PGE2 EIA); assay type: biochemical; conditions: microsomes of COS-1 cells transfected with human mPGES-1 cDNA; PGH2 1 μM; 4° C., 4 minutes; PGE2 by EIA; read-out: h mPGES1 IC50
T1 construct: made in house; host or cells: COS-1 cells (transient transfection; microsomal fraction used as enzyme)
T1 sequence (O14684 1-152): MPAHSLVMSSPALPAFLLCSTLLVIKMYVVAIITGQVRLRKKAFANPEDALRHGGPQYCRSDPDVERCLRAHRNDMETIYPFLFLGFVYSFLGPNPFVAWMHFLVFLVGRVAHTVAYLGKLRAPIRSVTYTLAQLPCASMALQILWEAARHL
Summary of the method: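 Enzyme source was microsomes from COS-1 cells transiently expressing human mPGES-1, in sodium phosphate pH 7.2 with 2.5 mM GSH, 1 mM EDTA and 2% DMSO final. After a 15 min preincubation with compound at 4 °C, 1 μM PGH2 (final) reacted for 4 min at 4 °C.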

Structure (SMILES)	IC50 [nM]
O=c1cc(C(F)F)nc(-c2c(C(F)(F)F)ccc(CNC(=O)[C@H]3C[C@H](OCc4cccc(F)c4F)C3)c2F)[nH]1 [Example 172, trans-3-[(2,3-difluorobenzyl)oxy]-N-{3-[4-(difluoromethyl)-6-oxo-1,6-dihydropyrimidin-2-yl]-2-fluoro-4-(trifluoromethyl)benzyl}cyclobutane-1-carboxamide]	< 1
O=c1cc(C(F)F)nc(-c2c(C(F)(F)F)ccc(CNC(=O)[C@H]3C[C@H](OCc4ccc(F)cc4Cl)C3)c2F)[nH]1 [Example 173, trans-3-[(2-chloro-4-fluorobenzyl)oxy]-N-{3-[4-(difluoromethyl)-6-oxo-1,6-dihydropyrimidin-2-yl]-2-fluoro-4-(trifluoromethyl)benzyl}cyclobutane-1-carboxamide]	< 1
O=c1cc(C(F)F)nc(-c2c(C(F)(F)F)ccc(CNC(=O)[C@H]3C[C@H](OCc4cccc(Cl)c4F)C3)c2F)[nH]1 [Example 174, trans-3-[(3-chloro-2-fluorobenzyl)oxy]-N-{3-[4-(difluoromethyl)-6-oxo-1,6-dihydropyrimidin-2-yl]-2-fluoro-4-(trifluoromethyl)benzyl}cyclobutane-1-carboxamide]	< 1
O=c1cc(C(F)F)nc(-c2c(C(F)(F)F)ccc(CNC(=O)[C@H]3C[C@H](OCc4cc(Cl)ccc4F)C3)c2F)[nH]1 [Example 175, trans-3-[(5-chloro-2-fluorobenzyl)oxy]-N-{3-[4-(difluoromethyl)-6-oxo-1,6-dihydropyrimidin-2-yl]-2-fluoro-4-(trifluoromethyl)benzyl}cyclobutane-1-carboxamide]	< 1
O=c1cc(C(F)F)nc(-c2c(C(F)(F)F)ccc(CNC(=O)[C@H]3C[C@H](OCc4ccc(F)c(Cl)c4)C3)c2F)[nH]1 [Example 176, trans-3-[(3-chloro-4-fluorobenzyl)oxy]-N-{3-[4-(difluoromethyl)-6-oxo-1,6-dihydropyrimidin-2-yl]-2-fluoro-4-(trifluoromethyl)benzyl}cyclobutane-1-carboxamide]	< 1
O=c1cc(C(F)F)nc(-c2c(C(F)(F)F)ccc(CNC(=O)[C@H]3C[C@H](OCc4cc(F)cc(Cl)c4)C3)c2F)[nH]1 [Example 177, trans-3-[(3-chloro-5-fluorobenzyl)oxy]-N-{3-[4-(difluoromethyl)-6-oxo-1,6-dihydropyrimidin-2-yl]-2-fluoro-4-(trifluoromethyl)benzyl}cyclobutane-1-carboxamide]	10

Next, values leading:

IC50 [nM]	Structure (SMILES)
< 1	Cc1cc(=O)[nH]c(-c2c(C(F)(F)F)ccc(CNC(=O)[C@H]3C[C@H](OCc4ccccc4Cl)C3)c2F)n1 [Example 178, trans-3-[(2-chlorobenzyl)oxy]-N-[2-fluoro-3-(4-methyl-6-oxo-1,6-dihydropyrimidin-2-yl)-4-(trifluoromethyl)benzyl]cyclobutane-1-carboxamide]
< 1	Cc1cc(=O)[nH]c(-c2c(C(F)(F)F)ccc(CNC(=O)[C@H]3C[C@H](OCc4cccc(Cl)c4)C3)c2F)n1 [Example 179, trans-3-[(3-chlorobenzyl)oxy]-N-[2-fluoro-3-(4-methyl-6-oxo-1,6-dihydropyrimidin-2-yl)-4-(trifluoromethyl)benzyl]cyclobutane-1-carboxamide]
1.7	Cc1cc(=O)[nH]c(-c2c(C(F)(F)F)ccc(CNC(=O)[C@H]3C[C@H](OCc4ccc(Cl)cc4)C3)c2F)n1 [Example 180, trans-3-[(4-chlorobenzyl)oxy]-N-[2-fluoro-3-(4-methyl-6-oxo-1,6-dihydropyrimidin-2-yl)-4-(trifluoromethyl)benzyl]cyclobutane-1-carboxamide]
19	Cc1cc(=O)[nH]c(-c2c(C(F)(F)F)ccc(CNC(=O)[C@H]3C[C@H](OCc4ccccc4C(F)(F)F)C3)c2F)n1 [Example 181, trans-N-[2-fluoro-3-(4-methyl-6-oxo-1,6-dihydropyrimidin-2-yl)-4-(trifluoromethyl)benzyl]-3-{[2-(trifluoromethyl)benzyl]oxy}cyclobutane-1-carboxamide]

— patent US20250340557A1, “PYRIMIDINE DERIVATIVE” (ASKA PHARMACEUTICAL CO., LTD., priority 2022, published 2025)
